{
  "source": "patent US20080317769A1",
  "about": "“Vaccine Composition Comprising Alpha-Galactosylceramide as an Adjuvant For Intranasal Administration” (priority 2005, published 2008)",
  "key": {"[1]": {"details": "rodents and apes; cited from earlier work"}, "[2]": {"tested_on": "OVA-specific antibody responses", "assay": "OVA-specific antibody responses by ELISA after intranasal co-administration of OVA and αGalCer, C57BL/6 mice", "format": "in vivo", "procedure": "To investigate the activity of αGalCer as an adjuvant in mucosa, required amount of αGalCer and 100 μg of OVA or 100 μg of OVA alone was diluted with PBS, making 20 μl solution (10 μl/nostril), which was administered to C57BL/6 mice or Balb/c mice (Charles River Laboratories, Orient Co., Ltd., Korea) at 6-8 weeks three times at one-week intervals.\nSix to eight-weeks-old […] mice (Charles River Laboratories, Orient Co., Ltd., Korea) were immunized with 100 μg of OVA alone or together with the indicated amounts of αGalCer (0.125, 0.5, 2.0 μg), diluted with PBS and made 20 μl (10 μl/nostril) solution, three times at one-week intervals.\nA week after the final immunization, the mice were sacrificed. OVA-specific antibody responses were measured by ELISA. The nasal wash sample was obtained by washing the nasal passage with 100 μl of sterilized PBS (Yamamoto et al., J. Immunol., 161: 4115, 1998), and bronchoalveolar lavage fluid was also obtained by the same manner as described to prepare the lung wash (Chung et al., Immunobiology 206: 408, 2002).\nOVA-specific IgG titers in the nasal wash and the lung wash were measured (Chung et al., Immunobiology 206: 408, 2002). To measure IgA, IgG1 and IgG2a titers, two-fold serially diluted samples were used. To determine IgA titer, horseradish-peroxidase-conjugated goat anti-mouse IgA (SIGMA, USA), peroxidase substrate and TMB (SIGMA, USA) were used and 0.5 N—HCL was added thereto to terminate color development. Then, OD450 was measured. To determine IgG, IgG1 and IgG2a titers, alkaline phosphatase-conjugated goat anti-mouse IgG, IgG1 and IgG2a (Southern Biotech, USA) and alkaline phosphatase substrate, p-nitrophenyl phosphate (SIGMA), were used.\nTo assess the immune bias towards Th1 or Th2 immune responses induced by α-GalCer nasal vaccine adjuvant indirectly, IgG isotypes in serum were determined and the ratios of IgG1 to IgG2a were calculated."}, "[3]": {"tested_on": "IFN-γ-producing CD8+ T cells", "assay": "IFN-γ-producing CD8+ T cells by intracellular cytokine staining, Balb/c mice, OVA", "format": "in vivo", "details": "splenocytes cultured 4 days with 500 μg/ml OVA, with the increase of αGalCer concentration", "procedure": "OVA dose not include an epitope peptide binding to a MHC class I molecule in Balb/c mouse. So, to investigate cytotoxic activity induced by αGalCer adjuvant in the Balb/c mouse, the numbers of IFN-γ-producing CD8+ T cells were measured (FIG. 11). Particularly, the cells (2×10^6 cells/ml) were cultured for 4 days with 500 μg/ml of OVA, to which 1 μl/ml of GolgiPug™ (BD Pharmigen, USA) was added 6 hours before termination of the culture. Then, staining was performed by using FITC-conjugated CD3 mAb (Clone 145-2C11, Biolegend Inc, USA), PE-conjugated CD8 mAb (Clone 53-6.7, Biolegend Inc, USA) and APC-conjugated IFN-γ mAb (Clone XMG1.2, Biolegend Inc, USA). Intracellular staining was performed with BD Cytofix/Cytoperm Plus™ (BD Pharmigen, USA) according to the manufacturer's instruction, and the stained cells were analyzed with FACSCalibur (BD Bioscience, USA) and CellQuest software (BD Bioscience, USA)."}, "[4]": {"tested_on": "live PR8 virus", "assay": "Plaque assay of live PR8 virus in the lung wash after 20 LD50 challenge", "format": "in vivo", "details": "Balb/c mice; 10 μg inactivated PR8 + αGalCer intranasal; three days after 20 LD50 live PR8", "procedure": "(§1) To examine the role of αGalCer as an adjuvant of a killed virus, influenza virus A/PR/8/34 (PR8), which was inactivated with formalin, was used as an antigen to examine the anti-virus immune response. Balb/c mice were immunized with indicated amounts (1 μg, 10 μg) of inactivated PR8 alone or together with αGalCer by the intranasal administration twice at two-week intervals. Two weeks after the final immunization, the mice were sacrificed and following experiments were performed.\nImmunized mice were infected with 20 LD50 of live PR8 virus and sacrificed three days later to obtain the lung wash. The amounts of live PR8 virus in the lung wash were measured by plaque assay. Particularly, MDCK cells (purchased from ATCC) were cultured in a 6 well plate at the density of 95-100%. The lung wash was 10-fold diluted by using a medium serially, which was added to the plate, followed by infection for one hour. Then, the lung wash was eliminated. An agarose containing medium was added thereto, followed by further culture in a CO2 incubator for 2-3 days. The numbers of plaques formed therein were counted with the naked eye."}, "[5]": {"tested_on": "IFN-γ-producing CD8+ T cells", "assay": "IFN-γ-producing CD8+ T cells after β-galactosidase stimulation of spleen cells (Ad-LacZ immunization)", "format": "in vivo", "details": "Balb/c mice; Ad-LacZ + 0.125 μg αGalCer intranasal; spleen cells stimulated with 2.5 μg/mL β-galactosidase for 5 days", "procedure": "Balb/c mice were immunized with 10^6 pfu of replication-deficient live adenovirus harboring beta-galactosidase gene (Ad-LacZ) (Viromed, Korea) alone or together with 0.125 μg of αGalCer by the intranasal administration, two times at two-week intervals. One week after the final immunization, the nasal wash, the lung wash and serum were separated, by the same manner as described in Example 1, to measure β-galactosidase-specific antibody response. In addition, to measure CTL activity, spleen cells were stimulated by 2.5 μg/mL of β-galactosidase for 5 days and IFN-γ-producing CD8+ T cells were examined by intracellular cytokine staining according to the procedure as described in Example <4-2>."}, "[6]": {"tested_on": "influenza virus A/PR/8/34", "parameters": "species or system Balb/c mice", "details": "mouse, in vivo"}, "[7]": {"tested_on": "immune cells from spleen and CLN", "assay": "Immune cell proliferation, [3H]-thymidine incorporation of spleen and CLN cells cultured with inactivated PR8", "format": "in vivo", "details": "Balb/c mice; inactivated PR8 + αGalCer intranasal; cells cultured with inactivated PR8 for 3 days, [3H]-thymidine 18 hrs", "procedure": "as §1\nSingle cells separated from the spleen and CLN of the sacrificed mice were cultured with inactivated PR8 for 3 days and [^3H]-thymidine was added and further incubated for 18 hrs. As cells were being proliferated, the level of incorporated [^3H]-thymidine was measured by LSC."}},
  "note": "“Also recorded” adds a separate entry of the source.",
  "data": [
    {"smiles": "CCCCCCCCCCCCCCCCCCCCCCCCCC(=O)N[C@@H](CO[C@H]1O[C@H](CO)[C@H](O)[C@H](O)[C@H]1O)[C@H](O)[C@H](O)CCCCCCCCCCCCCC", "note": "[αGalCer, alpha-galactosylceramide]", "values": [
      {"measurement": "toxicity", "setting": "[1]", "result": "seems not to induce toxicity"},
      {"measurement": "OVA-specific IgA responses in the nasal wash and the lung wash", "setting": "[2]; 2.0 μg αGalCer + 100 μg OVA intranasal, three times at one-week intervals, vs vehicle alone or OVA alone", "result": "significantly higher; also recorded: increased"},
      {"measurement": "OVA-specific Th2 type IgG1 and Th1 type IgG2a levels in serum", "setting": "[2]; co-administration of αGalCer and OVA intranasal", "result": "remarkable increase; also recorded: increased"},
      {"measurement": "OVA-specific IgG in serum", "setting": "[2]; αGalCer 0.125, 0.5, 2.0 μg + 100 μg OVA intranasal, vs vehicle alone or OVA alone", "result": "higher levels"},
      {"measurement": "numbers of IFN-γ-producing CD8+ T cells, relation to αGalCer concentration", "setting": "[3]", "result": "decreased"},
      {"measurement": "plaques of live PR8 virus in the lung wash", "setting": "[4]", "result": "no plaque was observed"},
      {"measurement": "numbers of IFN-γ-producing CD8+ T cells", "setting": "[5]", "result": "significant increase"},
      {"measurement": "weight loss recovery after virus infection", "setting": "[6]", "result": "rapid rate of weight loss recovery"},
      {"measurement": "proliferation of immune cells from spleen and CLN", "setting": "[7]", "result": "significantly increased"}
    ]}
  ]
}
